The results in this text go back to patent publication US5439940A, “Benz[e]indene derivatives” (priority 1992, dated 1995).

Molecules are shown by their SMILES. Where two headings read alike, the source gives them in different places.

Data set [1] can be described thus: Acute toxicity on mice (oral LD50). Conditions: mouse, in vivo, 7 days observation, maximal dose 1000 mg/kg. On the procedure:
Mice belonging to the NMRI strain (body weight 20-25 g, both male and female) were used, 6 to 10 animals for each dose. The test compound was administered orally in a volume of 20 ml/kg. The applied maximal dose was 1000 mg/kg. […] The mice were kept in a plastic cage at room temperature. The animals got tap water and standard mouse fodder ad libitum. The toxicity data were determined by the aid of the method of Litchfield and Wilcoxon [Litchfield, J. T., Wilcoxon, F. W.: J. Pharmacol. Exp. Ther., 96, 99 (1949)].

The subject of data set [2] is shocks tolerated. Put plainly: Anxiolytic effect (Vogel et al.). The class given is in vivo, rat (male Wistar). Conditions: ip, 2 h; rat, intraperitoneal, two hours before testing; read-out: Anxiolytic effect MED. On the procedure:
The anxiolytic effect was tested by using the method of Vogel et al. Male Wistar rats of 160-180 g bodyweight were kept free of food and drinking water for 24 and 48 hours, respectively. Test and carrier substances were administered intraperitoneally two hours before testing. Animals within the experimental chamber were provided with drinking water through an inserted tube. After the animals' each twenty lapping for water the device emitted a 2 mA intensity electric shock through the drinking tube. During 5 minutes the shocks tolerated by the animals in order to quench their thirst were counted. The effect of treatment was expressed as the % increase of the tolerated shocks. The minimum effective dose (MED) was determined for each test compound [Voqel, J. R., Beer, B., Clody, D. E.: Psychopharmacologia (Berl.) 21, 1 (1971)].

Data set [3] relates to learned conditioned avoidance reflex. The data set is described as follows: Antipsychotic effect: inhibition of conditioned avoidance reflex (shuttle box). Conditions: 1 h, read-out: Conditioned reflex ID50. Format: in vivo, rat (male Wistar). On the procedure:
The antipsychotic (neuroleptic) effect was measured by the inhibition of the learned conditioned avoidance reflex. The male Wistar rats used for the study were of 120-150 g bodyweight at the commencement of learning. […] In response to a suitable warning stimulus, in order to avoid the punishing (unconditioned) stimulus, animals within the box passed through the gate from one part over the other. The warning, i.e. conditioned stimulus (CS), a white light (1 Hz) blinking for 15 seconds, was applied at the place of the actual animal existence. The unconditioned stimulus (US), in form of 0.6 mA intensity electric shock, was randomly applied to the paw during the last 5 seconds of the conditioned stimulus. Animal's movement during the CS and US from one part of the box over the other, was defined as avoidance and escape responses, respectively. Both responses ceased the actual stimulus and stopped the trial. The time elapsed until the next trial (intertrial interval, ITI) was 15 seconds. While one experiment was carried out daily, an experiment consisted of 80 trials. Learning efficiency was expressed as percentage of the successful to the total avoidances. […] Dosing was carried out once a week, one hour before the measurement in the shuttle box.

Data set [4] relates to catalepsy. The data set is described as follows: Catalepsy. Format: in vivo, rat (Wistar). Conditions: rat; for Catalepsy MED: scored from 60 minutes after dosing, four hours. On the procedure: The extrapyramidal syndrome, the most important side effect limiting the application of the neuroleptic drugs in man, can be produced in experimental animals in the form of catalepsy. Our experiments in 150-160 g Wistar rats were performed according to Morpurgo. The catalepsy, appearing 60 minutes after dosing, was scored as follows. Both forelegs of each animal were put for 10 seconds onto a rubber stopper of 3 cm height, then for additional 10 seconds onto a same stopper of 9 cm height. […] The procedure was repeated in each 30 minutes during four hours, obtaining scores proportional to the degree of the catalepsy. Results were used to calculate the minimum effective dose [MED, the lowest dose resulting statistically significant alteration, c.f.: Morpurgo, C.: Arch. Int.

For data set [5], the system named is hexobarbital narcosis. The data set is described as follows: Hexobarbital narcosis potentiating effect on mice. Format: in vivo, mouse. Conditions: oral; for ED50: Mus musculus, 1 hour before hexobarbital 40 mg/kg i.v., sleeping time >2.5 times control, read-out: ED50 hexobarbital narcosis potentiation. As to the method:
The hexobarbital narcosis potentiating effect was examined on mice. Groups consisting of 6 animals were used for each dose. The animals were treated orally with the test compound, whereby sleeping was induced 1 hour later by administering a 40 mg/kg i.v. dose of hexobarbital both to the test and control groups. […] ED50 values were calculated from the thus-transformed data [Kaergaard Nielsen C. et al., Arch. Int. Pharmacodyn. 2, 170 (1967)].

Data set [6] has as its system pentetrazole spasm. Put plainly: Anticonvulsive activity: pentetrazole spasm inhibiting test. Format: in vivo, mouse (NMRI). Conditions: Mus musculus; mice, oral, 1 hour before pentetrazole 125 mg/kg i.p.; read-out: Inhibition of pentetrazole spasm, ED50. As to the method: The pentetrazole spasm inhibiting test was performed according to the modified method of Benziger and Hans. Groups of mice consisting of 6 animals each, belonging to the NMRI strain (body weight: 20-25 g), were treated orally with the compound to be tested and the vehicle without active agent, respectively. I hour after the treatment a dosage of 125 mg/kg of pentetrazole was administered to each animal, intraperitoneally, and the tonic spasm of the lower limb extensor was recorded [Benziger, R., Hans, D.: Arch. Int. Pharmacodyn., 167, 245 (1967)].
(§1) The ED50 values were determined according to the method of Litchfield and Wilcoxon.

In data set [7] the test system is nicotine spasm. The data set is described as follows: Anticonvulsive activity: inhibition of nicotine spasm and lethality. Format: in vivo. Conditions: Mus musculus, 1 h; mice, oral, one hour before nicotine 1.4 mg/kg i.v. As to the method:
The inhibition of nicotine spasm and lethality was examined on mice according to the method of Stone. One hour after the oral treatment a dosage of 1.4 mg/kg of nicotine is injected intravenously, and the spasm developed as well as the lethality within 1 hour were recorded at both the test and control groups. [Stone, C. C., Mecklenburg, K. L., Torchiana, M. L.: Arch. Int. Pharmacodyn., 117, 419 (1958)].
as §1

Data set [8] concerns nervus ischiadicus. The data set is described as follows: Local analgesic effect (Truant d'Amato). Conditions: 0.2 ml injected around nervus ischiadicus. The class given is in vivo. As to the method:
The test was carried out according to the method of Truant d'Amato. 0.2 ml of test material was injected around the nervus ischiadicus in the middle of femur with a needle of 1 cm length. The criterion of analgesic effect was the lack of the motoric control of foot muscles. The duration of effect was registered and the 50 percentile effective concentration (EC50) was calculated on the basis of the dose-effect curve. Lidocain was used as reference substance Truant d'Amato, A. P., Wiedling, S.: Acta Chir. Scand., 116, 351 (1958)].

The subject of data set [9] is experimental coronary insufficiency. Put plainly: Antianginal effect (glanduitrine-induced coronary insufficiency, Nieschultz). Format: in vivo, rat (male). Conditions: rat, glanduitrine 4 NE/kg i.v., T-wave; for inhibition in vivo at 2 mg/kg: Rat2, iv, read-out: Inhibition in a dose of 2 mg/kg. As to the method: The test was carried out on male rats weighing 180-220 g. The animals were narcotized with the aid of chloralose-urethane. ECG was registered by means of needle electrodes in standard II output. Antianginal effect was tested according to the method of Nieschultz. Experimental coronary insufficiency was induced by administering glanduitrine (4 NE/kg i.v.).

Data set [10] concerns spontaneous motility. Put plainly: Spontaneous motility inhibiting activity (Dews equipment). The class given is in vivo. Conditions: Mus musculus, 0.5 h; oral, beam interruptions within 30 minutes; read-out: Motility inhibiting activity ID50. As to the method: The spontaneous motility inhibiting activity was examined according to the method of Borsy et al. Groups consisting of 3 mice each were treated orally with different doses of the compounds to be tested, then the test animals were placed in a Dews equipment. In this equipment the number of interruptions of infrared beam within 30 minutes was counted. […] [Borsy, J., Csanyi, E., Lazar, I.: Arch. Int.. Pharmacodyn. 124, 1 (1960)].

Data set [11] deals with acetic acid writhing reactions. The data set is described as follows: Analgesic effect (acetic acid writhing, Newbould). The class given is in vivo, mouse (NMRI). Conditions: Mus musculus, 1 h; mice, 0.75% acetic acid one hour after treatment; read-out: Analgesic effect ID50. As to the method: The characteristic "writhing reactions" were counted for a period of 5 minutes, starting from the fifth minute after challenge. […] Each group of animals consisted of at least 10 mice. […]

As for `CNC1=Nc2ccc(Cl)cc2C(c2ccccc2)=[N+]([O-])C1` [Chlordiazepoxide, reference compound], in data set [1], the LD50 (commonly the dose at which mortality reaches 50%) at 168 h was 650 mg/kg. Also, the minimal effective dose in data set [2] came to 2.5 mg/kg.
In turn, `CN(C)CCCN1c2ccccc2Sc2ccc(Cl)cc21` [Chlorpromazine, reference compound] returned an LD50 at 168 h in [1] of 315 mg/kg. Further, the ED50 in [3] (Rattus norvegicus) was 13.2 mg/kg. Also, in data set [4], the “Therapeutic index (Catalepsy MED / Conditioned Reflex ID50)” value amounted to 1.5 and the “Catalepsy MED” value is reported as 20 mg/kg.
In turn, `CN(C)CCON=C1CCc2c1ccc1ccccc21` [Example 1, 3-[2-(N,N-Dimethylamino)-ethoxyimino]-2,3-dihydro-1H-benz[e]indene] had an LD50 at 168 h in data set [1] of 820 mg/kg. In addition, the “effect observed in the given dose, hexobarbital narcosis potentiation” value (“effect observed in the given dose” for short) in [5] (dose 200 mg/kg) is recorded as 100%.
Regarding `CCN(CC)CCON=C1CCc2c1ccc1ccccc21` [Example 3, 3-[2-(N,N-Diethylamino)-ethoxyimino]-2,3-dihydro-1H-benz[e]indene], the LD50 at 168 h in [1] is 640 mg/kg. Further, the results for the ED50 in data set [6] and in data set [7] were 96 mg/kg and 29 mg/kg, respectively.
Compound `c1ccc2c3c(ccc2c1)C(=NOCCN1CCCC1)CC3` [Example 7, 3-[2-(N-Pyrpolidinyl)-ethoxyimino]-2,3-dihydro-1H-benz[e]indene] came in with an LD50 at 168 h in [1] of 700 mg/kg. The “Local analgesic effect EC50” value in data set [8] is recorded as 0.20%.
For the compound `c1ccc2c3c(ccc2c1)C(=NOCCN1CCCCC1)CC3` [Example 8, 3-[2-(N-Piperidinyl)-ethoxyimlno]-2,3-dihydro-1H-benz[e]indene], in [1], the LD50 at 168 h was over 1000 mg/kg. In addition, the “effect observed in the given dose” value in data set [5] (dose 100 mg/kg) is 67%. The inhibition in vivo at 2 mg/kg in data set [9] turned out to be 56%.
For the compound `c1ccc2c3c(ccc2c1)C(=NOCCCN1CCCCC1)CC3` [Example 9, 3-[3-(N-Piperidinyl)-propoxyimino]-2,3-dihydro-1H-benz[e]indene], the LD50 at 168 h in [1] stood at 320 mg/kg. The “Local analgesic effect EC50” value in [8] stood at 0.20%.
With `c1ccc2c3c(ccc2c1)C(=NOCCN1CCOCC1)CC3` [Example 11, 3-[2-(N-Morpholinoethoxyimino)]-2,3-dihydro-1H-benz[e]indene], in data set [1], the 50% lethal dose (LD50) at 168 h was over 1000 mg/kg. Also, in [6], the ED50 is 84 mg/kg. Also, the inhibition in vivo at 2 mg/kg in data set [9] was 54%.
The compound `Clc1cccc(N2CCN(CCCON=C3CCc4c3ccc3ccccc43)CC2)c1` [Example 12, 3-{3-[4-(3-Chlorophenyl)-1-piperazinyl]-propoxyimino}-2,3-dihydro-1H-benz[e]indene] came in with an LD50 at 168 h in [1] of over 1000 mg/kg. In addition, the “effect observed in the given dose” value in [5] (dose 200 mg/kg) is 83%. Further, the values for the ED50 in data set [10] and in [6] were about 100 mg/kg and 30 mg/kg, respectively. In addition, in data set [9], the inhibition in vivo at 2 mg/kg was 56%.
`OCCN1CCN(CC(O)CON=C2CCc3c2ccc2ccccc32)CC1` (stereo not shown) [Example 18, 3-{3-[4-(2-Hydroxyethyl)-1-piperazinyl]-2-hydroxypropoxyimino}-2,3-dihydro-1H-benz[e]indene]: the LD50 at 168 h in data set [1] was over 1000 mg/kg. In data set [9], the inhibition in vivo at 2 mg/kg turned out to be 59%.
Consider `COc1ccccc1N1CCN(CC(O)CON=C2CCc3c2ccc2ccccc32)CC1` (stereo not shown) [Example 19, 3-{3-[4-(2-Methoxyphenyl)-1-piperazinyl]-2-hydroxypropoxyimino}-2,3-dihydro-1H-benz[e]indene], for which, in data set [1], the LD50 at 168 h is over 1000 mg/kg. Further, the ED50 in data set [5] was 67 mg/kg; in data set [10], 43 mg/kg; in data set [11], 65 mg/kg.
The compound `O=C(NC1CCCCC1)ON=C1CCc2c1ccc1ccccc21` [Example 22, 3-(O-Cyclohexylcarbamoyl)-oxime-2,3-dihydro-1H-benz[e]indene] returned an LD50 at 168 h in data set [1] of over 1000 mg/kg. For the same compound, the inhibition in vivo at 2 mg/kg in data set [9] is 59%.
With `CCN(CC)CC(=O)Nc1c(C)cccc1C` [Lidocain, reference compound], the “Local analgesic effect EC50” value in data set [8] came to 0.19%.
`CCCC(C)(COC(N)=O)COC(N)=O` [Meprobamate, reference compound] displayed an LD50 at 168 h in [1] of 1350 mg/kg. Besides, the ED50 was determined as 260 mg/kg in [5] and 232 mg/kg in data set [10]. Besides, the minimal effective dose in data set [2] was 25 mg/kg.
On to `CC(Cc1ccccc1)NCCC(c1ccccc1)c1ccccc1` (stereo not shown) [Prenylamine, reference compound], for which the inhibition in vivo at 2 mg/kg in [9] stood at 41%. Further, the ED50 in data set [9] (iv) stood at 6.6 mg/kg.
With `CSc1ccc2c(c1)N(CCC1CCCCN1C)c1ccccc1S2` (stereo not shown) [Thioridazine], in data set [3] (rat, dosing one hour before measurement), the ED50 amounted to 108 mg/kg. In data set [4], the “Therapeutic index (Catalepsy MED / Conditioned Reflex ID50)” value came to 0.7 and the “Catalepsy MED” value came out at 80 mg/kg.
As for `OC(CCN1CCCCC1)(c1ccccc1)C1CCCCC1` (stereo not shown) [Trihexyphenidyl, reference compound], the ED50 in [7] stood at 20 mg/kg.
In the case of `CN1C(=O)OC(C)(C)C1=O` [Trimethadione, reference compound], the ED50 in data set [6] came to 400 mg/kg.
